The source of these data is the METLIN SMRT retention time set (Domingo-Almenara et al. 2019).

This data set can be described thus: gradient 5% acetonitrile 3 min, to 50% in 2 min, to 85% in 15 min, held 3 min, 100 µL/min. The note with it: column: Zorbax Extend-C18 2.1 x 50 mm; eluents: water / acetonitrile, 0.1% formic acid. Put shortly: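 Retention times of pure standards were taken from adduct peaks that were selected by computer and manually inspected. Over 3 months, mixtures of ~100 molecules were run by HPLC–quadrupole time-of-flight mass spectrometry in positive and negative ionization mode. The Zorbax Extend-C18 column (2.1 × 50 mm, 1.8 μm) ran at 100 μL/min in water and acetonitrile, each containing 0.1% formic acid, with 40 μL dead volume and 900 μL dwell volume.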
`CS(=O)(=O)N1CCCc2ccc(NS(=O)(=O)c3ccccc3Cl)cc21` displayed an RP-LC retention time of 806 s. As for `Cc1oc(C(C)C)nc1C(=O)NCc1ccccc1C(F)(F)F`, the RP-LC retention time was found to be 1050 s. Compound `CCN(CC)C(=O)N1CC(Oc2ccc(-c3nc(C)no3)cc2)C1` had an RP-LC retention time of 824 s.

With `CC1CCN(C(=O)c2ccc3ncnc(N4CCCC4)c3c2)CC1`, the RP-LC retention time is 619 s. Take `NC(=O)c1cc[nH]c1C1CCCN(C(=O)c2ccc(Cn3cncn3)o2)C1` (centres undefined): the RP-LC retention time was found to be 560 s.

In turn, `CC(=O)OCCN1c2ccccc2Sc2cnccc21` displayed an RP-LC retention time of 663 s. Consider `Cn1cc(CN2CCC(C(=O)NCCCN3CCOCC3)CC2)c2cc(Cl)ccc21`, for which the RP-LC retention time worked out at 580 s. Compound `CCOC(=O)C1CCN(c2c(S(=O)(=O)c3ccccc3)cnc3ccc(C)cc23)CC1` registered an RP-LC retention time of 964 s. Compound `C=CCNC(=O)c1snc(C(=O)NC(C)C)c1N` yielded an RP-LC retention time of 749 s.

With `O=C(Nc1cccc(F)c1)C1CCCN(S(=O)(=O)c2c[nH]c(C(=O)N3CCCC3)c2)C1` (centres undefined), the RP-LC retention time amounted to 808 s. The figure for `COc1ccc(CN2CCC[C@H]2c2nc(C3CCOCC3)n[nH]2)c(Cl)c1OC` is 584 s; for `Cc1cccc(Nc2c(-c3cc(Br)ccc3O)nc3ncccn23)c1` it is 1020 s; for `Cc1nc(-c2cccnc2)nc2c1CCC(=O)N2Cc1cccnc1` it is 560 s. As to `CCOC(=O)c1cc(OCC)c2c(ccc3ccccc32)n1`, the RP-LC retention time was 1080 s.

Take `Cc1ccc(-c2nnc(-c3ccc(Cl)c(S(=O)(=O)N(C)C)c3)o2)cc1`: the RP-LC retention time was found to be 1040 s. The compound `Cn1nnnc1SCC(=O)Nc1nc(-c2ccccc2)c(-c2ccccc2)o1` showed an RP-LC retention time of 888 s. As for `O=C(N[C@H]1C[C@@H]2C[C@H]1CN2C(=O)Cc1ccc(OC(F)(F)F)cc1)c1cccs1`, the RP-LC retention time is 832 s. The figure for `CCOC(=O)Cn1nc2ccc(S(=O)(=O)N3CCSCC3)cn2c1=O` is 765 s.

Turning to `Cc1oc(C2CCN(C(=O)Nc3ccc(Cl)cc3F)CC2)nc1C(=O)N(C)C`, the RP-LC retention time turned out to be 714 s. `COCCNC(=O)c1cccnc1N1CCNC(c2ccccc2)C1` (centres undefined) came in with an RP-LC retention time of 564 s. The figure for `CCN(CCCNC(=O)c1sc2ncccc2c1-n1cccc1)c1ccccc1` is 709 s; for `CCC(CO)NCc1ccc(-c2ccc(F)cc2)o1` (centres undefined) it is 637 s; for `O=C(Nc1nnc(C2CC(=O)N(c3ccc(Cl)cc3)C2)o1)c1ccccc1F` (centres undefined) it is 748 s. The figure for `Cc1ccc(-c2ncccc2CNS(=O)(=O)c2ccc(F)cc2)cc1` is 707 s; for `Cc1ccccc1-c1cc2c(=O)n(Cc3nc(-c4ccc5c(c4)OCO5)no3)ccn2n1` it is 1050 s; for `CCCn1cc(CCNC(=O)Nc2cc(Cl)ccc2C)c2cccnc21` it is 863 s. For the compound `Cc1noc(-c2ccnc(-n3ncc(C(=O)N4CCSCC4)c3C)c2)n1`, the RP-LC retention time came out at 785 s. `COC(=O)CN1CN(c2ccccc2)C2(CCN(Cc3cccc4ccccc34)CC2)C1=O` returned an RP-LC retention time of 729 s. Take `O=C1CCCCC(CNC(=O)c2ccsc2)N1` (centres undefined): the RP-LC retention time amounted to 619 s. `O=C(NCCc1csc(-c2cccs2)n1)C1CCN(C(=O)Cc2ccc(F)cc2)CC1`: the RP-LC retention time stood at 774 s.

Compound `CCC1CCCCN1C(=O)c1cnc2nc(C)ccc2c1Nc1cc(OC)cc(OC)c1` (centres undefined) displayed an RP-LC retention time of 674 s. Take `CCc1nc2cc(-c3noc(-c4ccccc4F)n3)ccc2o1`: the RP-LC retention time amounted to 1140 s. The figure for `O=C(Nc1cccc(Cl)c1)c1nnn(-c2ccc(F)cc2)c1-c1cccnc1` is 963 s.

Compound `CC(C)c1ccc(CNC(=O)Cc2nnc(-c3ccc4ncccc4c3)o2)cc1` had an RP-LC retention time of 811 s. As to `CCc1cc(=O)n(CC(=O)Nc2cccc(C#N)c2)c(-c2ccccc2)n1`, the RP-LC retention time stood at 1080 s. `CCOC(CCNC(=O)CCC(=O)Nc1ccc2nc(N3CCN(C)CC3)cc(C)c2c1)OCC` showed an RP-LC retention time of 546 s.

`N#Cc1cccc(-c2cn3c(n2)N(C(=O)c2cnccn2)CCC3)c1` gave an RP-LC retention time of 687 s. In turn, `Cn1nc(-c2nc(C3CC3)no2)c2c1CCN(C(=O)c1cc(F)ccc1F)C2` displayed an RP-LC retention time of 860 s.

`Cc1sc(NC(=O)c2ccccc2)nc1-c1ccc2c(c1)NC(=O)CO2` gave an RP-LC retention time of 857 s. Compound `O=C(CCc1c(-c2ccc(Br)cc2)nc2ccccn12)NCc1ccco1` came in with an RP-LC retention time of 660 s. `CC(C(=O)N1CCCN(c2nc3cccnc3o2)CC1)c1ccccc1` (centres undefined) registered an RP-LC retention time of 718 s. `O=C(c1ccc(Cl)cc1)N1CCC2(CC1)N=C(c1ccccc1)NO2` yielded an RP-LC retention time of 824 s. The compound `O=C(c1nccnc1-c1nc2ccccc2s1)N1CCc2ccccc21` registered an RP-LC retention time of 941 s. The figure for `Cc1ccc(Nc2c(-c3cccc([N+](=O)[O-])c3)nc3ccc(Cl)cn23)cc1` is 1100 s; for `COc1cc(C(=O)Nc2nc(-c3ccc4c(c3)NC(=O)CO4)c(C)s2)cc(OC)c1OC` it is 860 s. The figure for `Cc1ccc(NC(=O)N2CCC(OC3CCN(S(C)(=O)=O)CC3)CC2)cc1F` is 792 s; for `O=C(COc1ccccc1F)N1CCN(Cc2nc(C3CC3)cs2)CC1` it is 640 s. `Cc1cc(NCC(=O)NC2CCCCC2)n2nc(-c3cccnc3)nc2n1`: the RP-LC retention time stood at 646 s. The figure for `COCCNC(=O)CN1CCN(c2cc(C(=O)O)c3cc(NC(=O)C(C)(C)C)ccc3n2)CC1` is 561 s; for `COc1ccc(C2C(C(=O)NCCCN3CCCCCC3)CCC(=O)N2c2ccc(OC)cc2)cc1` (centres undefined) it is 589 s; for `CCC(C)NC(=O)c1ccc(-c2ccc(N3CCSCC3)nc2)cc1` (centres undefined) it is 711 s. The figure for `Cc1cccc(NC(=O)Nc2ccc3c(c2)CCN3S(=O)(=O)c2ccccc2)c1` is 994 s; for `Cc1cc(C)c(S(=O)(=O)N2CCCCC2)c(C)c1N(C)S(=O)(=O)c1ccccc1` it is 1060 s. `O=C(Nc1ccc(F)cc1)c1c(O)c2cccnc2n(-c2ccccc2)c1=O` returned an RP-LC retention time of 1240 s. On to `COc1ccccc1N1CCN(S(=O)(=O)c2ccc3c(c2)CCCC(=O)N3)CC1`, for which the RP-LC retention time came to 809 s. As to `COc1ccc(N2C=C(C(=O)N3CCCC3)S(=O)(=O)c3ccc(F)cc32)cc1`, the RP-LC retention time is 736 s. As for `O=C1COc2ccc(C(=O)N3CCCCC3)cc2N1`, the RP-LC retention time worked out at 633 s. `CCOCN(C(=O)Cn1c(C(C)O)nc2ccccc21)c1c(C)cccc1CC` (centres undefined) yielded an RP-LC retention time of 748 s.

Compound `O=C(NCc1ccc(Cl)cc1)c1ccc(NC(=O)C2CCC2)cc1N1CCOCC1` registered an RP-LC retention time of 896 s.
